Measured values reported in US11247970B2, “Selective inhibition of gluconeogenic activity” (Dana-Farber Cancer Institute, Inc., priority 2017, dated 2022).

Legend:
PGC-1α [1] = biological target: T1, PGC-1α (Mus musculus, UniProt O70343); test: AlphaLisa PGC-1α acetylation screen in U-2 OS cells over expressing PGC-1α and GCN5; type: cell-based; design: expressed in transfected cells; host or cells: U-2 OS cells infected with Ad-PGC-1α and Ad-GCN5
T1 sequence (O70343 1-797): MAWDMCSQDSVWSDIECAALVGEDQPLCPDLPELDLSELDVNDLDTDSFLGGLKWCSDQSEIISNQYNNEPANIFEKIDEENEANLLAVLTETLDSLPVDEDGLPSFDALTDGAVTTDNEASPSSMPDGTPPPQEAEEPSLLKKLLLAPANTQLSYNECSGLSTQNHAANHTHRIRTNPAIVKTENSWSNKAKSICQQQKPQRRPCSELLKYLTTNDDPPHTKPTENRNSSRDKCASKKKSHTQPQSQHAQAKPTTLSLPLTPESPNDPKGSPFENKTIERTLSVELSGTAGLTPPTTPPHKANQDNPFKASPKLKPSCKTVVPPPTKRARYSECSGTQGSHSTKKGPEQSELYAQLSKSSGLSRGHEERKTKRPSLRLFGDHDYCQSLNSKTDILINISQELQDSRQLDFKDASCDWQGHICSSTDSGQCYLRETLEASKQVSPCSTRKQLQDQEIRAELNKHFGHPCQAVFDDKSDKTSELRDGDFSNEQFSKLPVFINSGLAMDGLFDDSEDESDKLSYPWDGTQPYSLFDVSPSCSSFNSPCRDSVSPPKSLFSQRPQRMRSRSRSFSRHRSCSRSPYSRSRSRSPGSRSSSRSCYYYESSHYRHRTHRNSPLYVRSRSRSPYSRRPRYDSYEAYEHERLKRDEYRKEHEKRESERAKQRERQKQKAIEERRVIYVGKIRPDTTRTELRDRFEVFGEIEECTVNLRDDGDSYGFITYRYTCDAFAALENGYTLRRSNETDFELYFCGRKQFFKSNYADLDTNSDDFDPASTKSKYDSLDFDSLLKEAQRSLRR
Description: U-2 OS cells were thawed and grown in 4 Triple flasks (NUNC) with growth medium. After 48 hours, cells were harvested and seeded in 4 Hyper flasks at a density of 15-20 million cell each. Cells were then grown for 4-5 days until reached confluency. After reaching the desired confluency, medium was changed to assay medium and cells were infected with Ad-PGC-1α and Ad-GCN5 for 4 hours. Following infection, medium was changed to phenol-free medium and cells were incubated overnight. The following day, cells were harvested and seeded on a 384-well plate at 7000 cells/well in […] assay media. Cells were allowed to adhere for 4-8 hours after which 100 nl of compound was added. After overnight incubation with compound, media was aspirated and cells were incubated with lysis buffer for 1 hour at RT. […] Perkin Elmer EnVision plate reader was used for signal detection using Alpha protocol. For each compound, activity score was calculated based on the mean of the normalized and corrected sample activity replicates. […] For each sample the highest valid tested concentration was determined and set as Maximum concentration. […] AC values were calculated using the curve fitting strategies in Genedata Screener Condoseo (7.0.3) and up to the active concentration limit (Maximum concentration) described for each sample. […]

[2] = Preliminary pharmacokinetics, liver concentration; type: in vivo; settings: ip, 2 h after single dose 30 mg/kg I.P., read-out: compound concentration in the liver
primary hepatocytes = test: Glucose production by primary hepatocytes (glucagon or Ad-PGC-1α); type: cell-based, mouse; settings: for glucose release to culture medium compared to control: hepatocytes ectopically expressing PGC-1α, overnight treatment, pyruvate/lactate
Description: (§1) For measurement of acetylation, gene expression and glucose production SR-18292 ([…]) was added to cells overnight and fresh compound was added the following day for additional 3 h before collecting the cells (for total of ˜18 h treatment). Where insulin and glucagon stimulation were performed, the medium was changed to starvation medium (DMEM, 0.2% BSA, 2 mM sodium pyruvate, and 1% penicillin/streptomycin) with fresh compound for the last 3 h and cells were stimulated with either 100 nM insulin or 200 nM glucagon for an extra 1.5 h. For glucose measurements following PGC-1α over expression cells were incubated for the last 3 h in glucose-free medium (phenol-red/glucose free DMEM, 0.2% BSA, 2 mM sodium pyruvate and 20 mM sodium lactate or 10 mM glycerol in case glycerol was used as substrate). For glucose measurements following glucagon stimulation cells were incubated for the last 4 h in the same glucose-free medium that also contained glucagon (200 nM). The glucose level in the medium was measured using a glucose assay kit from Eton Bioscience Inc. by adding […] of assay buffer to […] of medium followed by 15 min incubation at 37° C. Absorbance was measured at 490 nm.
PGC-1α activates hepatic gluconeogenic gene expression, and an increase in its acetylation status reduces expression of both Pck1 and G6pc genes (Rodgers et al., 2005; Yoon et al., 2001). […] Thus, a high-throughput screen with these 252 compounds at different doses was performed. Briefly, Hepatocytes were treated with forskolin for 1.5 hours to induce the expression of both Pck1 and G6pc genes, which mimics the fasting and PGC-1α-mediated gluconeogenic response. The dose response curves were used to calculate an inhibitory activity of the compounds by determining the difference in Ct values between compound treatment and forskolin control at each dose, and provided an estimated potency of the compounds in suppressing Pck1 and G6pc (FIGS. 4, 34). […] To specifically test the inhibitory activity of the remaining small molecule positive hits on PGC-1α-mediated glucose production, adenoviruses to ectopically express PGC-1α in primary hepatocytes were used. Similar to forskolin, PGC-1α overexpression induces gluconeogenic gene expression and promotes glucose release. Primary hepatocytes were treated with the chosen positive hit compounds that could suppress gluconeogenic gene expression, and the concentration of glucose released to the culture medium was measured.

[3] = Solubility (data not shown); type: physicochemical
[4] = Bioavailability (data not shown)
[5] = test system: Pck1 and G6pc gene expression; test: Gluconeogenic gene and protein expression in primary hepatocytes (qPCR, western); type: cell-based, mouse; design: effect on glucagon or PGC-1α-increased Pck1 and G6pc expression, relative to SR-18292: dose or concentration left out as unconfirmed; settings: 18 h, glucagon or Ad-PGC-1α
Description: as §1
siRNA oligos against mouse Ppargc1a were purchased from OriGene (SR420231). Hepatocytes were transfected with a 1:1:1:mixture of 3 unique 27mer siRNA duplexes ([…]) using Lipofectamin RNAiMax (Invitrogen) immediately upon seeding with plating medium. The following morning cells were washed with PBS and medium was changed to maintenance medium. In the afternoon, cells were transfected again and compound treatment started.
Total RNA was extracted from cells or pulverized liver using TRIzol reagent (Ambion, Life Technologies), followed by cDNA preparation from 2 μg of total RNA with a High-Capacity cDNA Reverse Transcription Kit (Applied Biosystems). cDNA products were quantified by real-time PCR using Power SYBR Green PCR Master Mix (Applied Biosystems) on a CFX384 Real-Time PCR System (Bio-Rad). To calculate IC50 from C-80 dose response, curves were fit to the hill equation in a similar manner used to calculate estimated AC50 from the high-throughput qPCR screen. However, unlike the curves from the qPCR high-throughput screen, values of relative repression were used rather than of delta-Ct.

PGC-1α [6] = biological target: T1, PGC-1α; test: Western blot of PGC-1α acetylation in U-2 OS cells (analog comparison); type: cell-based; design: expressed in transfected cells; host or cells: U-2 OS cells infected with Ad-PGC-1α and Ad-GCN5; dose or concentration left out as unconfirmed; settings: Ad-PGC-1α and Ad-GCN5, 18 h
Description: U-2 OS cells were infected with Ad-PGC-1α and Ad-GCN5 and treated with the indicated compound for 18 h. PGC-1α was immunoprecipitated using FLAG beads.
For PGC-1α acetylation detection in hepatocytes cells were infected with Ad-PGC-1α and Ad-GCN5. Cells were collected in RIPA buffer (containing protease inhibitor cocktail, 5 mM NaF, 5 mM β-glycerophosphate, 10 mM nicotinamide, 1 mM DTT and 1 μM trichostatin A). FLAG-HA-PGC-1α was immunoprecipitated overnight at 4° C. with FLAG beads (Sigma A2220). For GCN5 interaction with PGC-1α, U-2 OS cells were infected with Ad-PGC-1α. Nuclear extracts were obtained by lysing cell in Buffer A (10 mM HEPES-KOH (pH 7.9), 10 mM KCl, 1.5 mM MgCl2, 0.5 mM DTT, 0.25% IGEPAL (v/v), 5 mM NaF, 5 mM β-glycerophosphate, 5 mM sodium butyrate and 10 mM nicotinamide), supplemented with Protease Inhibitor Cocktail. Once cytoplasmic fractions were separated, nuclear pellets were lysed in Buffer B (20 mM HEPES-KOH (pH 7.9), 125 mM NaCl, 1 mM EDTA, 1 mM DTT, 1% IGEPAL (v/v), 10% glycerol (v/v), 5 mM NaF, 5 mM β-glycerophosphate, 5 mM sodium butyrate and 10 mM nicotinamide), supplemented with Protease Inhibitor Cocktail. FLAG-HA-PGC-1α was immunoprecipitated with FLAG beads overnight at 4° C. All beads were washed at last 3 times in lysis buffer before eluting in sample loading buffer.

Cc1ccc(CN(CC(O)COc2cccc3[nH]cc(C)c23)C(C)(C)C)cc1 (stereo not drawn) [Compound C-80]
potency in a confirmatory screen (PGC-1α [1]): highest potency
concentration at 2 h [2]: 2300 nM
glucose release to culture medium compared to control (primary hepatocytes): next most potent small molecule

Cc1nc(N2CCN(S(=O)(=O)c3ccc(F)cc3)CC2)c2c(-c3cccs3)csc2n1 [Compound C-82]
solubility [3]: poor
glucose release to culture medium compared to control (primary hepatocytes): top small molecule hit suppressing glucose production
bioavailability [4]: poor

Cc1ccc(CN(CC(O)COc2ccccc2)C(C)(C)C)cc1 (stereo not drawn) [SR-19138]
effect on glucagon or PGC-1α-increased Pck1 and G6pc expression, relative to SR-18292 [5]: reduced the inhibitory effect
ability to induce acetylation of PGC-1α compared to SR-18292 (PGC-1α [6]): reduced ability to induce acetylation of PGC-1α

CN(C)C(=N)N=C(N)N [metformin, reference compound]
concentration able to suppress glucose production (primary hepatocytes; hepatocytes): 100 to 250 µM
